This passage reports MIC and IC50 results from patent publication US6861448B2, “NAD synthetase inhibitors and uses thereof” (priority 1998, dated 2005).

Sequence of NAD synthetase (P08164 whole entry): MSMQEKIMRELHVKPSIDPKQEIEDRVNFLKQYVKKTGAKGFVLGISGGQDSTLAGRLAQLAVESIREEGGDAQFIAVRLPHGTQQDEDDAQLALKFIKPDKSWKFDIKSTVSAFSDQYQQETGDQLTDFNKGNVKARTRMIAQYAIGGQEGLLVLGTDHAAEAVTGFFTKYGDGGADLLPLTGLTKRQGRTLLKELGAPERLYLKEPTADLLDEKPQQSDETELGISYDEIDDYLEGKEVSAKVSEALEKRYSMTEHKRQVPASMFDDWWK

For one assay, the system named is S. aureus (MCR). The experiment in a line: microbe, parasite or virus in culture. Type of assay: cell-based. The following applies: Staphylococcus aureus, read-out: Minimal Inhibitory Concentration (MIC), S. aureus (MCR), multiple values = two or more tests.
Regarding `CC1(C)S[C@@H]2[C@H](NC(=O)[C@H](N)c3ccccc3)C(=O)N2[C@H]1C(=O)O` [Ampicillin, reference compound], the MIC is more than 50 µg/mL.

A further assay has as its target NAD synthetase (Bacillus subtilis, UniProt P08164). In words: NAD synthetase coupled enzyme assay. Type of assay: biochemical. The following applies: NAD synthetase 2.0 μg/mL; 0.1 mM NaAD; 0.2 mM ATP; pH 8.5. The source says:
This Example illustrates the NAD synthetase enzyme inhibiting activity of some compounds of the present invention. [drawing 48] The coupled assay—production of NAD was monitored through conversion to NADH by alcohol dehydrogenase. [NADH] was monitored by 2 parallel methods: the change in absorbance at 340 nm, and fluorescence at 460 nm (excitation 320 nm). […] Controls were included for determining inhibitor background, precipitation, and ADH inhibition.
Take `C[N+](C)(C)C(Cc1ccccc1)C(=O)NCCCCCCCCOc1ccc(OC(=O)c2ccc(F)c(F)c2)cc1` (stereo not shown) [Compound 1613]: the IC50 was 19.1 µM.
Same read-out and setting: the same measure for `CC(=O)Nc1ccc(C(=O)Oc2ccc(OCCCCCCCCOC(=O)C(Cc3ccccc3)[N+](C)(C)C)cc2)cc1` (stereo not shown) [Compound 1482]: 26.2 µM; for `C[n+]1cccc(C(=O)NCCCCCCCCOc2ccc3c(c2)C(=O)CC(c2ccccc2)O3)c1` (stereo not shown) [Compound 1448]: 30.7 µM.
`C[N+](C)(C)c1ccc(CC(=O)OCCCCCCCCOc2ccc(OCc3ccccc3Cl)cc2)cc1` [Compound 1396] returned a half-inhibitory concentration (IC50) of 15.1 µM.
On the same count and under the same terms, under `C[N+](C)(C)c1ccc(CC(=O)NCCCCCCCCOc2ccc(OC(=O)c3ccc(Cl)cc3)cc2)cc1` [Compound 1624] stands 31.2 µM; under `C[N+](C)(C)C(Cc1ccccc1)C(=O)NCCCCCCCCOc1ccc(OC(=O)c2c(Cl)cc(Cl)cc2Cl)cc1` (stereo not shown) [Compound 1616], 38.5 µM.
Consider `C[N+](C)(C)c1ccc(CC(=O)NCCCCCCCCOc2ccc(OCc3cccc(Cl)c3)cc2)cc1` [Compound 1421], for which half-maximal inhibition (IC50) was put at 34.8 µM.
For `C[n+]1cccc(C(=O)NCCCCCCCCOc2ccc(OC(=O)c3cccc(Cl)c3Cl)cc2)c1` [Compound 1661], half-maximal inhibition (IC50) required 23.7 µM.
Still for that read-out and setting: the same measure for `C[n+]1cccc(C(=O)NCCCCCCCCOc2ccc(OC(=O)c3c(Cl)cccc3Cl)cc2)c1` [Compound 1664]: 19.9 µM.
`C[N+](C)(C)C(Cc1ccccc1)C(=O)NCCCCCCCCOc1ccc(OC(=O)c2cc(F)c(F)cc2F)cc1` (stereo not shown) [Compound 1619] came in with an IC50 of 22.3 µM. This IC50 and that of the compound before are within 1.5-fold of each other.
The same measure, in the same setting: the same measure for `CC(=O)Oc1ccc(C(=O)Oc2ccc(OCCCCCCCCOC(=O)C(Cc3ccccc3)[N+](C)(C)C)cc2)cc1` (stereo not shown) [Compound 1475]: 22.6 µM; for `C[N+](C)(C)C(Cc1ccccc1)C(=O)NCCCCCCCCOc1ccc(OC(=O)c2cc(Cl)cc(Cl)c2)cc1` (stereo not shown) [Compound 1608]: 26.3 µM.
For the compound `C[N+](C)(C)C(Cc1ccccc1)C(=O)NCCCCCCCCOc1ccc(OC(=O)c2c(Cl)cccc2Cl)cc1` (stereo not shown) [Compound 1606], the half-maximal inhibitory concentration (IC50) was 39.1 µM.
The compound `N=C(N)N[C@@H](Cc1ccccc1)C(=O)NCCCCCCCCOc1ccc(OCc2ccccc2)cc1` [Compound 1682] gave an IC50 of 17.6 µM.
For the compound `CCC[N+]1([C@@H](Cc2ccccc2)C(=O)OCCCCCCCCOc2ccc(OCc3ccccc3)cc2)CCCC1` [Compound 1443], the IC50 came out at 27.9 µM.
Turning to `CC[N+]1([C@@H](Cc2ccccc2)C(=O)OCCCCCCCCOc2ccc(OCc3ccccc3)cc2)CCCC1` [Compound 1442], the IC50 is 21.4 µM. The IC50 values of the last two compounds are within 1.5-fold of each other.
For the compound `C[N+](C)(C)c1ccc(CC(=O)NCCCCCCCCOc2ccc(OC(=O)c3cc(F)c(F)c(F)c3)cc2)cc1` [Compound 1650], the IC50 was more than 50 µM.
On the same count and under the same terms, the same measure for `C[N+](C)(C)c1ccc(CC(=O)NCCCCCCCCOc2ccc(OC(=O)c3cc(Cl)cc(Cl)c3Cl)cc2)cc1` [Compound 1644]: 23.9 µM.
The same measure, in the same setting: the same measure for `C[N+](C)(C)C(Cc1ccccc1)C(=O)NCCCCCCCCOc1ccc(OC(=O)c2cccc(F)c2F)cc1` (stereo not shown) [Compound 1609]: 20.7 µM.
In the case of `C[N+](C)(C)C(Cc1ccccc1)C(=O)NCCCCCCCCOc1ccc(OC(=O)c2cc(F)cc(F)c2)cc1` (stereo not shown) [Compound 1614], the IC50 amounted to 23.1 µM. This IC50 and that of the compound before are within 1.5-fold of each other.
The same measure, in the same setting: under `C[N+](C)(C)c1ccc(CC(=O)NCCCCCCCCOc2ccc(OC(=O)c3ccccc3Cl)cc2)cc1` [Compound 1622] stands 34.2 µM.
`C[N+](C)(C)c1ccc(CC(=O)NCCCCCCCCOc2ccc(OC(=O)c3c(Cl)cc(Cl)cc3Cl)cc2)cc1` [Compound 1645] gave an IC50 of 18.1 µM.
On the same count and under the same terms, under `C[N+](C)(C)C(Cc1ccccc1)C(=O)OCCCCCCCCOc1ccc2c(c1)C(=O)CC(c1ccccc1)O2` (mixture of isomers) [Compound 1370] stands 16.9 µM.
Compound `C[N+](C)(C)[C@@H](Cc1ccccc1)C(=O)OCCCCCCCCOc1ccc2oc(-c3ccccc3)cc(=O)c2c1` [Compound 1371] yielded a half-maximal inhibitory concentration (IC50) of 19.1 µM.
Same read-out and setting: the same measure for `COc1ccc(COc2ccc(OCCCCCCCCOC(=O)C(Cc3ccccc3)[N+](C)(C)C)cc2)cc1` (stereo not shown) [Compound 1389]: 45.5 µM; for `C[N+]1([C@@H](Cc2ccccc2)C(=O)OCCCCCCCCOc2ccc(OCc3ccccc3)cc2)CCCC1` [Compound 1336]: 19.4 µM.
As for `CN(C)[C@@H](Cc1ccccc1)C[N+](C)(C)CCCCCCCCOc1ccc(OCc2ccccc2)cc1` [Compound 1498], it took 39.4 µM to reach half-maximal inhibition (IC50).
The compound `CC(C)Oc1ccc(C(=O)Oc2ccc(OCCCCCCCCNC(=O)C(Cc3ccccc3)[N+](C)(C)C)cc2)cc1` (stereo not shown) [Compound 1600] came in with an IC50 of 28.7 µM.
The same measure, in the same setting: the same measure for `C[n+]1cccc(C(=O)NCCCCCCCCOc2ccc(OC(=O)c3ccc(Cl)c(Cl)c3)cc2)c1` [Compound 1665]: 19.6 µM; for `C[N+](C)(C)C(Cc1ccccc1)C(=O)NCCCCCCCCOc1ccc(OC(=O)c2cc(F)c(F)c(F)c2)cc1` (stereo not shown) [Compound 1621]: 25.5 µM.
In turn, `C[N+](C)(C)c1ccc(CC(=O)NCCCCCCCCOc2ccc(OC(=O)c3ccc(Cl)cc3Cl)cc2)cc1` [Compound 1633] returned an IC50 of 20.4 µM.
On the same count and under the same terms, the same measure for `C[N+](C)(C)C(Cc1ccccc1)C(=O)NCCCCCCCCOc1ccc(OC(=O)c2cc(Cl)ccc2Cl)cc1` (stereo not shown) [Compound 1605]: 21 µM.
The compound `C[N+](C)(C)c1ccc(CC(=O)OCCCCCCCCCCCOc2ccc(OCc3ccccc3)cc2)cc1` [Compound 1323] had a concentration for half-maximal inhibition (IC50) of 48.2 µM. This IC50 lies about 2.3-fold higher than the previous one.
As to `C[N+](C)(C)c1ccc(CC(=O)NCCCCCCCCOc2ccc(OC(=O)c3cccc(Cl)c3Cl)cc2)cc1` [Compound 1632], inhibition was half-maximal at 18.5 µM (IC50). Against the preceding compound, the IC50 is about 2.6-fold lower.
In the case of `C[n+]1cccc(C(=O)NCCCCCCCCOc2ccc(OC(=O)c3ccc(Cl)cc3)cc2)c1` [Compound 1653], the IC50 came to 19.5 µM.
Take `C[N+](C)(C)C(Cc1ccccc1)C(=O)OCCCCCCCCOc1ccc(OC(=O)c2ccc(-n3ccnc3)cc2)cc1` (stereo not shown) [Compound 1486]: the concentration for half-maximal inhibition (IC50) turned out to be 37.8 µM.
In the case of `C[N+](C)(C)C(Cc1ccccc1)C(=O)NCCCCCCCCOc1ccc(OC(=O)c2cccc(Cl)c2Cl)cc1` (stereo not shown) [Compound 1603], the concentration for half-maximal inhibition (IC50) was determined as 34.9 µM.
The same measure, in the same setting: under `C[N+](C)(C)C(Cc1ccccc1)C(=O)OCCCCCCCCOc1ccc(OCc2ccccc2Cl)cc1` (stereo not shown) [Compound 1390] stands 14.2 µM; under `C[n+]1cccc(C(=O)NCCCCCCCCOc2ccc(OC(=O)c3cc(Cl)ccc3Cl)cc2)c1` [Compound 1663], 18.4 µM.
Still for that read-out and setting: the same measure for `CC(C)(C)OC(=O)C(Cc1cn(CCCCCCCCOc2ccc(OCc3ccccc3)cc2)c2ccccc12)[N+](C)(C)C` (stereo not shown) [Compound 1494]: 12.5 µM; for `C[N+]1([C@@H](Cc2ccccc2)C(=O)NCCCCCCCCOc2ccc(OCc3ccccc3)cc2)CCCC1` [Compound 1495]: 33.4 µM; for `N=C(N)N[C@H](COCCCCCCCCOc1ccc(OCc2ccccc2)cc1)Cc1ccccc1` [Compound 1680]: 10.1 µM.
`C[N+](C)(C)c1ccc(CC(=O)OCCCCCCCOC(=O)c2ccc(OCc3ccccc3)cc2)cc1` [Compound 1359] had a 50% inhibitory concentration (IC50) of 42.2 µM.
Take `C[N+](C)(C)C(Cc1ccccc1)C(=O)OCCCCCCCCOc1ccc(OCc2ccccc2)cc1` (stereo not shown) [Compound 1338]: the midpoint of inhibition, the IC50, lay at 23 µM. This IC50 is about 1.8-fold lower than that of the compound before.
The same measure, in the same setting: under `C[N+](C)(C)[C@@H](Cc1c[nH]c2ccccc12)C(=O)OCCCCCCCCOc1ccc(OCc2ccccc2)cc1` [Compound 1491] stands 19.9 µM; under `C[N+](C)(C)C(Cc1ccccc1)C(=O)NCCCCCCCCOc1ccc(OC(=O)c2cccc(F)c2)cc1` (stereo not shown) [Compound 1597], 21.3 µM.
`C[N+](C)(C)C(Cc1ccc([N+](=O)[O-])cc1)C(=O)OCCCCCCCCOc1ccc(OCc2ccccc2)cc1` (stereo not shown) [Compound 1405] displayed a concentration for half-maximal inhibition (IC50) of 18.8 µM.
Same read-out and setting: the same measure for `COc1ccccc1COc1ccc(OCCCCCCCCOC(=O)C(Cc2ccccc2)[N+](C)(C)C)cc1` (stereo not shown) [Compound 1387]: 20.5 µM; for `COc1cccc(COc2ccc(OCCCCCCCCOC(=O)C(Cc3ccccc3)[N+](C)(C)C)cc2)c1` (stereo not shown) [Compound 1388]: 14.5 µM.
In turn, `C[N+](C)(C)C(Cc1ccccc1)C(=O)NCCCCCCCCOc1ccc(OC(=O)c2ccc(F)cc2F)cc1` (stereo not shown) [Compound 1610] came in with an IC50 of 30.4 µM.
The compound `C[N+](C)(C)C(Cc1ccccc1)C(=O)NCCCCCCCCOc1ccc(OC(=O)c2ccccc2F)cc1` (stereo not shown) [Compound 1596] displayed a half-inhibitory concentration (IC50) of 28 µM.
The same measure, in the same setting: the same measure for `C[N+](C)(C)C(Cc1ccccc1)C(=O)OCCCCCCCCOc1ccc(OC(=O)c2ccccc2)cc1` (stereo not shown) [Compound 1431]: 18.2 µM; for `C[N+](C)(C)C(Cc1ccccc1)C(=O)NCCCCCCCCOc1ccc(OC(=O)c2c(F)cc(F)cc2F)cc1` (stereo not shown) [Compound 1620]: 21.9 µM.
Compound `COc1ccccc1COc1ccc(OCCCCCCCCOC(=O)Cc2ccc([N+](C)(C)C)cc2)cc1` [Compound 1393] returned an IC50 of 36.7 µM.
In the case of `C[N+](C)(C)C(Cc1ccccc1)C(=O)OCCCCCCCCOc1ccc(OC(=O)c2ccc(C#N)cc2)cc1` (stereo not shown) [Compound 1479], 18.6 µM corresponded to half-maximal inhibition (IC50). This IC50 is about 2-fold lower than that of the compound before.
`C[N+](C)(C)c1ccc(CC(=O)NCCCCCCCCOc2ccc(OC(=O)c3cc(Cl)ccc3Cl)cc2)cc1` [Compound 1634]: the IC50 amounted to 21.2 µM.
Same read-out and setting: the same measure for `CC(=O)Oc1ccc(C(=O)Oc2ccc(OCCCCCCCCNC(=O)C(Cc3ccccc3)[N+](C)(C)C)cc2)cc1` (stereo not shown) [Compound 1599]: 44 µM.

The IC50 is the concentration that inhibits the measured activity by half.
